Measurements: patent US8168592B2 (Amgen Inc., priority 2005, dated 2012)
Like-named read-outs stand apart in the source and are kept apart here. Bridge positions count the residues as written; N and C are the ends. Square brackets hold non-standard residues; d marks the D form. Ends that are not written are not given here. Peptide text beside a SMILES is read from it. Oic = O=C(O)[C@@H]1C[C@@H]2CCCC[C@@H]2N1; 2Nal = N[C@@H](Cc1ccc2ccccc2c1)C(=O)O; hArg = N=C(N)NCCCC[C@H](N)C(=O)O; Cit = NC(=O)NCCC[C@H](N)C(=O)O; Aze = O=C(O)[C@@H]1CCN1

Target: T1, CGRP1 receptor (Homo sapiens, UniProt O60894+Q16602)
T1 construct: SK-N-MC cells express CRLR and RAMP1, which form CGRP1 receptor; endogenous in cells; host or cells: SK-N-MC human neuroblastoma cells
Assay: in vitro CGRP1 receptor mediated cAMP assay in SK-N-MC cells
Assay type: cell-based
Summary of the method: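 Intracellular cAMP served as the Gs-coupled CGRP1 readout in endogenously expressing SK-N-MC cells. After a 15-minute room-temperature step in plasma-free medium, cell lysates (30 minutes, 37° C) went into a competitive ELISA with a cAMP-AP conjugate and anti-cAMP antibody for 1 hour, then a 30-minute substrate enhancer step before reading.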

[1] = Table 2C, unconjugated peptide, read-out: Peptide IC50

T1 sequence (Q16602 23-461): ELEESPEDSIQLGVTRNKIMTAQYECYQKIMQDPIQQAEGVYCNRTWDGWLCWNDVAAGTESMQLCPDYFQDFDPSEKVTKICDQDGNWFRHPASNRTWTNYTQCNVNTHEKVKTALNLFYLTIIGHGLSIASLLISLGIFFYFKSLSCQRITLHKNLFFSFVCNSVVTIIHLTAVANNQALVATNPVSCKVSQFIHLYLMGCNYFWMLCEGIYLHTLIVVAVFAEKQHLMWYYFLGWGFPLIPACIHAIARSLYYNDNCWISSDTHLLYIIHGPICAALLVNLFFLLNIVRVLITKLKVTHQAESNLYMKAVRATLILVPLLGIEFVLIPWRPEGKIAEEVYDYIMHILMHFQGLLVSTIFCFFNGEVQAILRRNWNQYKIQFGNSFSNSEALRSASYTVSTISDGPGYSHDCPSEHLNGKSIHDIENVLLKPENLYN
T1 sequence (O60894 27-148): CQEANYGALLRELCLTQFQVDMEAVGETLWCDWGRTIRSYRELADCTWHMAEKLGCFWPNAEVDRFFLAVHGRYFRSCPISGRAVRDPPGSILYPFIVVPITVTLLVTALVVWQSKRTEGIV

Compound | IC50 [1] | IC50 (Table 2A, read-out: IC50) | further results
CC(=O)N[C@@H](Cc1c[nH]c2ccccc12)C(=O)N[C@H](C(=O)N[C@H]1CCC(=O)NCCCC[C@@H](C(=O)NCC(=O)N[C@@H](CC(C)C)C(=O)N[C@@H](CC(C)C)C(=O)N[C@@H](CO)C(=O)N[C@@H](CCCNC(N)=O)C(=O)N[C@@H](CO)C(=O)NCC(=O)N2CC[C@H]2C(=O)N[C@H](C(=O)N[C@H](C(=O)N[C@@H](CCCCNC(=N)N)C(=O)N[C@@H](CCCCN)C(=O)N[C@@H](CC(N)=O)C(=O)N[C@@H](Cc2ccccc2)C(=O)N[C@H](C(=O)N2CCC[C@H]2C(=O)N[C@H](C(=O)N[C@@H](CC(=O)O)C(=O)N[C@H](C(=O)NCC(=O)N2CCC[C@H]2C(=O)N[C@@H](Cc2ccccc2)C(=O)N[C@@H](C)C(=O)N[C@@H](Cc2ccccc2)C(N)=O)C(C)C)[C@@H](C)O)C(C)C)C(C)C)C(C)C)NC(=O)[C@H](CC(C)C)NC(=O)[C@H](CCCCNC(=N)N)NC(=O)[C@H](Cc2c[nH]cn2)NC1=O)C(C)C [compound 909] (Ac-WVEH[hArg]LKGLLS[Cit]SG[Aze]VV[hArg]KNFVPTDVGPFAF-NH2; lactam 3-7) | 3.45 nM | – | –
CC(=O)N[C@@H](Cc1c[nH]c2ccccc12)C(=O)N[C@H](C(=O)N[C@H](C(=O)N[C@@H](Cc1c[nH]cn1)C(=O)N[C@@H](CCCNC(N)=O)C(=O)N[C@@H](CC(C)C)C(=O)N[C@@H](C)C(=O)NCC(=O)N[C@@H](CC(C)C)C(=O)N[C@@H](CC(C)C)C(=O)N[C@@H](CO)C(=O)N[C@@H](CCCNC(N)=O)C(=O)N[C@@H](CO)C(=O)NCC(=O)NCC(=O)N[C@H](C(=O)N[C@H](C(=O)N[C@@H](CCCCNC(=N)N)C(=O)N[C@@H](CCCCN)C(=O)N[C@@H](CC(N)=O)C(=O)N[C@@H](Cc1ccc2ccccc2c1)C(=O)N[C@H](C(=O)N1[C@H](C(=O)N[C@H](C(=O)N[C@@H](CC(=O)O)C(=O)N[C@H](C(=O)NCC(=O)N2[C@H](C(=O)N[C@@H](Cc3ccccc3)C(=O)N[C@@H](C)C(=O)N[C@@H](Cc3ccc4ccccc4c3)C(N)=O)C[C@@H]3CCCC[C@@H]32)C(C)C)[C@@H](C)O)C[C@@H]2CCCC[C@@H]21)C(C)C)C(C)C)C(C)C)[C@@H](C)O)C(C)C [compound 139] (Ac-WVTH[Cit]LAGLLS[Cit]SGGVV[hArg]KN[2Nal]V[Oic]TDVG[Oic]FA[2Nal]-NH2) | – | 3.57 nM | –
SEQ ID NO:22 (WVTHXLAGLLSRSGGVVRKNFVPTDVGPFAF; CGRP peptide; MOD_RES (1)..(1): …ON; MISC_FEATURE (5)..(5): xaa=homoarginine; MISC_FEATURE (19)..(19): PEGylated; MOD_RES (31)..(31): AMIDATION) | – | – | antagonist activity in cAMP assay, in words: retaining their CGRP1 receptor antagonist activity
CC(=O)N[C@@H](Cc1c[nH]c2ccccc12)C(=O)N[C@H](C(=O)N[C@H](C(=O)N[C@@H](Cc1c[nH]cn1)C(=O)N[C@@H](CCCNC(N)=O)C(=O)N[C@@H](CC(C)C)C(=O)N[C@@H](C)C(=O)NCC(=O)N[C@@H](CC(C)C)C(=O)N[C@@H](CC(C)C)C(=O)N[C@@H](CO)C(=O)N[C@@H](CCCNC(N)=O)C(=O)N[C@@H](CO)C(=O)NCC(=O)NCC(=O)N[C@H](C(=O)N[C@H](C(=O)N[C@@H](CCCNC(=N)N)C(=O)N[C@@H](CCCCN)C(=O)N[C@@H](CC(N)=O)C(=O)N[C@@H](Cc1ccccc1)C(=O)N[C@H](C(=O)N1CCC[C@H]1C(=O)N[C@H](C(=O)N[C@@H](CC(=O)O)C(=O)N[C@H](C(=O)NCC(=O)N1[C@H](C(=O)N[C@@H](Cc2ccccc2)C(=O)N[C@@H](C)C(=O)N[C@@H](Cc2ccccc2)C(N)=O)C[C@@H]2CCCC[C@@H]21)C(C)C)[C@@H](C)O)C(C)C)C(C)C)C(C)C)[C@@H](C)O)C(C)C [compound 920] (Ac-WVTH[Cit]LAGLLS[Cit]SGGVVRKNFVPTDVG[Oic]FAF-NH2) | 0.85 nM | – | –
SEQ ID NO:2 (CGGGGGGGVTHRLAGLLSRSGGVVKNNFVPTNVGSKAF-NH2) | – | – | antagonist activity in cAMP assay, in words: deleterious to potency
SEQ ID NO:33 (Ac-WVTHRLAGLLSASGGVVRCNFVPTDVGPFAF-NH2) | – | – | antagonist activity in cAMP assay, in words: not well tolerated
CC(=O)N[C@@H](Cc1c[nH]c2ccccc12)C(=O)N[C@H](C(=O)N[C@H](C(=O)N[C@@H](Cc1c[nH]cn1)C(=O)N[C@@H](CCCNC(N)=O)C(=O)N[C@@H](CC(C)C)C(=O)N[C@@H](C)C(=O)NCC(=O)N[C@@H](CC(C)C)C(=O)N[C@@H](CC(C)C)C(=O)N[C@@H](CO)C(=O)N[C@@H](CCCNC(N)=O)C(=O)N[C@@H](CO)C(=O)NCC(=O)NCC(=O)N[C@H](C(=O)N[C@H](C(=O)N[C@@H](CCCCNC(=N)N)C(=O)N[C@@H](CCCCN)C(=O)N[C@@H](CC(N)=O)C(=O)N[C@@H](Cc1ccccc1)C(=O)N[C@H](C(=O)N1[C@H](C(=O)N[C@H](C(=O)N[C@@H](CC(=O)O)C(=O)N[C@H](C(=O)NCC(=O)N2CCC[C@H]2C(=O)N[C@@H](Cc2ccccc2)C(=O)N[C@@H](C)C(=O)N[C@@H](Cc2ccc3ccccc3c2)C(N)=O)C(C)C)[C@@H](C)O)C[C@@H]2CCCC[C@@H]21)C(C)C)C(C)C)C(C)C)[C@@H](C)O)C(C)C [compound 135] (Ac-WVTH[Cit]LAGLLS[Cit]SGGVV[hArg]KNFV[Oic]TDVGPFA[2Nal]-NH2) | – | 3.22 nM | –
Ac-WVTHRLAGLLSQSGGVVRKNFVPTDVGPFAF-NH2 [compound 856] | 0.47 nM | – | –
SEQ ID NO:42 (Ac-WVTHRLAGLLS[dR]SGGVVRCNFVPTDVGPFAF-NH2; not fully specified (residue 19); printed as Ac-WVTHRLAGLLSrSGGVVRCNFVPTDVGPFAF-NH2) | – | – | loss in antagonist activity on PEGylation relative to the unconjugated parent peptide (cAMP assay): greater than 32 fold
CC(=O)N[C@H](C(=O)N[C@H](C(=O)N[C@H](C(=O)N[C@H](C(=O)N[C@@H](Cc1c[nH]cn1)C(=O)N[C@@H](CCCNC(N)=O)C(=O)N[C@@H](CC(C)C)C(=O)N[C@@H](C)C(=O)NCC(=O)N[C@@H](CC(C)C)C(=O)N[C@@H](CC(C)C)C(=O)N[C@@H](CO)C(=O)N[C@@H](CCCNC(N)=O)C(=O)N[C@@H](CO)C(=O)NCC(=O)NCC(=O)N[C@H](C(=O)N[C@H](C(=O)N[C@@H](CCCCNC(=N)N)C(=O)N[C@@H](CCCCN)C(=O)N[C@@H](CC(N)=O)C(=O)N[C@@H](Cc1ccccc1)C(=O)N[C@H](C(=O)N1CCC[C@H]1C(=O)N[C@H](C(=O)N[C@@H](CC(=O)O)C(=O)N[C@H](C(=O)NCC(=O)N1CCC[C@H]1C(=O)N[C@@H](Cc1ccccc1)C(=O)N[C@@H](C)C(N)=O)C(C)C)[C@@H](C)O)C(C)C)C(C)C)C(C)C)[C@@H](C)O)C(C)C)C(C)C)C(C)C [compound 654] (Ac-VVVTH[Cit]LAGLLS[Cit]SGGVV[hArg]KNFVPTDVGPFA-NH2) | – | > 1000 nM | –
CC(=O)N[C@@H](Cc1c[nH]c2ccccc12)C(=O)N[C@H](C(=O)N[C@H]1CCC(=O)NCCCC[C@@H](C(=O)NCC(=O)N[C@@H](CC(C)C)C(=O)N[C@@H](CC(C)C)C(=O)N[C@@H](CO)C(=O)N[C@@H](CCCNC(N)=O)C(=O)N[C@@H](CO)C(=O)NCC(=O)NCC(=O)N[C@H](C(=O)N[C@H](C(=O)N[C@@H](CCCCNC(=N)N)C(=O)N[C@@H](CCCCN)C(=O)N[C@@H](CC(N)=O)C(=O)N[C@@H](Cc2ccccc2)C(=O)N[C@H](C(=O)N2CCC[C@H]2C(=O)N[C@H](C(=O)N[C@@H](CC(=O)O)C(=O)N[C@H](C(=O)NCC(=O)N2CCC[C@H]2C(=O)N[C@@H](Cc2ccccc2)C(=O)N[C@@H](C)C(=O)N[C@@H](Cc2ccccc2)C(N)=O)C(C)C)[C@@H](C)O)C(C)C)C(C)C)C(C)C)NC(=O)[C@H](CC(C)C)NC(=O)[C@H](CCCNC(=N)N)NC(=O)[C@H](Cc2c[nH]cn2)NC1=O)C(C)C [compound 663] (Ac-WVEHRLKGLLS[Cit]SGGVV[hArg]KNFVPTDVGPFAF-NH2; lactam 3-7) | – | – | IC50 (IC50, Table 2A): 1.22 to 2.06 nM

Second part, led by results:

IC50 [1] | IC50 (Table 2A, read-out: IC50) | Compound | further results
0.57 nM | – | CC(=O)N[C@@H](Cc1c[nH]c2ccccc12)C(=O)N[C@H](C(=O)N[C@H](C(=O)N[C@@H](Cc1c[nH]cn1)C(=O)N[C@@H](CCCNC(=N)N)C(=O)N[C@@H](CC(C)C)C(=O)N[C@@H](C)C(=O)NCC(=O)N[C@@H](CC(C)C)C(=O)N[C@@H](CC(C)C)C(=O)N[C@@H](CO)C(=O)N[C@@H](CCCCNC(=N)N)C(=O)N[C@@H](CO)C(=O)NCC(=O)NCC(=O)N[C@H](C(=O)N[C@H](C(=O)N[C@@H](CCCNC(=N)N)C(=O)N[C@@H](CCCCN)C(=O)N[C@@H](CC(N)=O)C(=O)N[C@@H](Cc1ccccc1)C(=O)N[C@H](C(=O)N1CCC[C@H]1C(=O)N[C@H](C(=O)N[C@@H](CC(=O)O)C(=O)N[C@H](C(=O)NCC(=O)N1CCC[C@H]1C(=O)N[C@@H](Cc1ccccc1)C(=O)N[C@@H](C)C(=O)N[C@@H](Cc1ccccc1)C(N)=O)C(C)C)[C@@H](C)O)C(C)C)C(C)C)C(C)C)[C@@H](C)O)C(C)C [compound 864] | –
– | > 1000 nM | CC(=O)N[C@@H](Cc1c[nH]c2ccccc12)C(=O)N[C@H](C(=O)N[C@H](C(=O)N[C@@H](Cc1c[nH]cn1)C(=O)N[C@@H](CCCNC(N)=O)C(=O)N[C@@H](CC(C)C)C(=O)N[C@@H](C)C(=O)NCC(=O)N[C@@H](CC(C)C)C(=O)N[C@@H](CC(C)C)C(=O)N[C@@H](CO)C(=O)N[C@@H](CCCNC(N)=O)C(=O)N[C@@H](CO)C(=O)NCC(=O)NCC(=O)N[C@H](C(=O)N[C@H](C(=O)N[C@@H](CCCCNC(=N)N)C(=O)N[C@@H](CCCCN)C(=O)N[C@@H](CC(N)=O)C(=O)N[C@@H](Cc1ccccc1)C(=O)N[C@H](C(=O)N1CCC[C@H]1C(=O)N[C@H](C(=O)N[C@@H](CC(=O)O)C(=O)N[C@H](C(=O)NCC(=O)N1CCC[C@H]1C(=O)N[C@@H](Cc1ccccc1)C(N)=O)C(C)C)[C@@H](C)O)C(C)C)C(C)C)C(C)C)[C@@H](C)O)C(C)C [compound 655] (Ac-WVTH[Cit]LAGLLS[Cit]SGGVV[hArg]KNFVPTDVGPF-NH2) | –
